Assay results from patent EP2970215B1, “PYRROLIDINE DERIVATIVES, PHARMACEUTICAL COMPOSITIONS CONTAINING THEM, AND THEIR USE IN THERAPY” (AbbVie Deutschland GmbH & Co. KG, priority 2013, dated 2014).

Biological target: T1, human GlyT1c transporter (Homo sapiens, UniProt P48067)
T1 construct: expressed in transfected cells; host or cells: CHO cells (recombinant; line hGlyT1c_5_CHO is named for the uptake assay)
T1 sequence (P48067 1-706): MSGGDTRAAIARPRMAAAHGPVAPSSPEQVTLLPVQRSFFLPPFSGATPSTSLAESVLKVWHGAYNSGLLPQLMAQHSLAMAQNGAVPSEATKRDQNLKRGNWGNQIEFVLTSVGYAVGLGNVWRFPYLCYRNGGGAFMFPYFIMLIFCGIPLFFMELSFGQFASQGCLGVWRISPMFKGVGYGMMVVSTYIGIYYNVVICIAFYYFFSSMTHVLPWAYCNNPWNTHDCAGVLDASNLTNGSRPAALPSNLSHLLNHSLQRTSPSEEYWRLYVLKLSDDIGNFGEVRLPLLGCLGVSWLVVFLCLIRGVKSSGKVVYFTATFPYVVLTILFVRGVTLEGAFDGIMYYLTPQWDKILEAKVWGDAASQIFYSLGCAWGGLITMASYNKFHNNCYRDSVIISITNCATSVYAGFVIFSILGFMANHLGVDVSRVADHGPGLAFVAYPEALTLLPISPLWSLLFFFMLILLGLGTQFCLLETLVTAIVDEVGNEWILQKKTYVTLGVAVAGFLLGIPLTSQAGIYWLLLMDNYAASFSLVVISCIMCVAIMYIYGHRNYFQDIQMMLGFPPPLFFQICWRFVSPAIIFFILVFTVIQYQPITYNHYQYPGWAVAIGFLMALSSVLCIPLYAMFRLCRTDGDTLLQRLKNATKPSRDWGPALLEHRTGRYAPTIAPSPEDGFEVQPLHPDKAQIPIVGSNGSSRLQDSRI
Test: Radioligand binding assay using recombinant CHO cell membranes expressing human GlyT1
Conditions: radioligand binding to human GlyT1c transporter-expressing membranes
Excerpt: 2. Radioligand binding assays using recombinant CHO cell membranes expressing human GlyT1: […]

| SMILES | Ki |
| --- | --- |
| CC(C)OCCCNC[C@@H]1CN(S(=O)(=O)c2cn(C)cn2)C[C@H]1c1ccc(F)cc1 (relative stereo) [Example 591, N-({trans-4-(4-fluorophenyl)-1-[(1-methyl-1H-imidazol-4-yl)sulfonyl]pyrrolidin-3-yl}methyl)-3-(propan-2-yloxy)propan-1-amine] | ≤ 10000 nM |
| Cc1ccc(CN[C@H]2CN(S(=O)(=O)c3cn(C)cn3)C[C@@H]2c2ccccc2)nc1 [Example 536, (3R,4S)-1-[(1-methyl-1H-imidazol-4-yl)sulfonyl]-N-[(5-methylpyridin-2-yl)methyl]-4-phenylpyrrolidin-3-amine] | ≤ 1000 nM |
| O=c1[nH]c2ccc(S(=O)(=O)N3CC(Nc4ccc(F)c(F)c4)C(c4ccccc4)C3)cc2[nH]1 (stereo not drawn) [Example 506, 5-({3-[(3,4-difluorophenyl)amino]-4-phenylpyrrolidin-1-yl}sulfonyl)-1,3-dihydro-2H-benzimidazol-2-one] | ≤ 10000 nM |
| Cn1cnc(S(=O)(=O)N2C[C@@H](COc3ccc(C(F)(F)F)cc3Cl)[C@H](c3ccc(F)cc3)C2)c1 (relative stereo) [Example 294, 4-{[trans-3-{[2-chloro-4-(trifluoromethyl)phenoxy]methyl}-4-(4-fluorophenyl)pyrrolidin-1-yl]sulfonyl}-1-methyl-1H-imidazole] | ≤ 10 nM |
| Cn1cnc(S(=O)(=O)N2C[C@@H](Nc3cc(F)ccc3F)[C@H](c3ccc(F)cc3)C2)c1 (relative stereo) [Example 164, trans-N-(2,5-difluorophenyl)-4-(4-fluorophenyl)-1-[(1-methyl-1H-imidazol-4-yl)sulfonyl]pyrrolidin-3-amine] | ≤ 10000 nM |
| Cn1cnc(S(=O)(=O)N2C[C@H](NCCCCC(F)(F)F)[C@@H](c3ccc(F)cc3)C2)c1 [Example 732, (3R,4S)-4-(4-fluorophenyl)-1-[(1-methyl-1H-imidazol-4-yl)sulfonyl]-N-(5,5,5-trifluoropentyl)pyrrolidin-3-amine] | ≤ 100 nM |
| CCCCCCN[C@@H]1CN(S(=O)(=O)c2cn(C)nn2)C[C@H]1c1ncccc1F (relative stereo) [Example 811, Trans-4-(3-fluoropyridin-2-yl)-N-hexyl-1-[(1-methyl-1H-1,2,3-triazol-4-yl)sulfonyl]pyrrolidin-3-amine] | ≤ 100 nM |
| Cn1cnc(S(=O)(=O)N2C[C@H](Nc3cc(-c4cccnc4)ccn3)[C@@H](c3ccc(F)cc3)C2)c1 [Example 750, N-{(3R,4S)-4-(4-fluorophenyl)-1-[(1-methyl-1H-imidazol-4-yl)sulfonyl]pyrrolidin-3-yl}-3,4'-bipyridin-2'-amine] | ≤ 100 nM |
| Cn1cnc(S(=O)(=O)N2C[C@H](Nc3cc(OC4CCCCC4)ncn3)[C@@H](c3ccc(F)cc3)C2)c1 [Example 721, 6-(cyclohexyloxy)-N-{(3R,4S)-4-(4-fluorophenyl)-1-[(1-methyl-1H-imidazol-4-yl)sulfonyl]pyrrolidin-3-yl}pyrimidin-4-amine] | ≤ 100 nM |
| Cn1cnc(S(=O)(=O)N2C[C@H](Nc3ccc(F)c(-c4ccncc4)c3)[C@@H](c3ccc(F)cc3)C2)c1 [Example 746, (3R,4S)-4-(4-fluorophenyl)-N-[4-fluoro-3-(pyridin-4-yl)phenyl]-1-[(1-methyl-1H-imidazol-4-yl)sulfonyl]pyrrolidin-3-amine] | ≤ 10 nM |
| Cn1cnc(S(=O)(=O)N2C[C@H](Nc3cc(-c4ccncc4)ccn3)[C@@H](c3ccc(F)cc3)C2)c1 [Example 751, N-{(3R,4S)-4-(4-fluorophenyl)-1-[(1-methyl-1H-imidazol-4-yl)sulfonyl]pyrrolidin-3-yl}-4,4'-bipyridin-2-amine] | ≤ 100 nM |
| Cn1cnc(S(=O)(=O)N2C[C@@H](Nc3cccc(F)c3)[C@H](c3ccc(F)cc3)C2)c1 (relative stereo) [Example 91, trans-N-(3-fluorophenyl)-4-(4-fluorophenyl)-1-[(1-methyl-1H-imidazol-4-yl)sulfonyl]pyrrolidin-3-amine] | ≤ 100 nM |
| Cn1cnc(S(=O)(=O)N2C[C@H](NCc3ccnc(Cl)c3F)[C@@H](c3ccccc3)C2)c1 [Example 567, (3R,4S)-N-[(2-chloro-3-fluoropyridin-4-yl)methyl]-1-[(1-methyl-1H-imidazol-4-yl)sulfonyl]-4-phenylpyrrolidin-3-amine] | ≤ 1000 nM |
| Cn1cnc(S(=O)(=O)N2C[C@@H](NCc3ccccc3C(F)(F)F)[C@H](c3ccc(F)cc3)C2)c1 (relative stereo) [Example 265, trans-4-(4-fluorophenyl)-1-[(1-methyl-1H-imidazol-4-yl)sulfonyl]-N-[2-(trifluoromethyl)benzyl]pyrrolidin-3-amine] | ≤ 1000 nM |
| Cn1cnc(S(=O)(=O)N2C[C@@H](Nc3cc(Cl)cc(C#N)c3)[C@H](c3ccccc3)C2)c1 (relative stereo) [Example 80, 3-chloro-5-({trans-1-[(1-methyl-1H-imidazol-4-yl)sulfonyl]-4-phenylpyrrolidin-3-yl}amino)benzonitrile] | ≤ 1000 nM |
| Cn1cnc(S(=O)(=O)N2C[C@@H](Nc3ccc(F)c(F)c3)[C@H](c3ncco3)C2)c1 (relative stereo) [Example 709, Trans-N-[3,4-difluorophenyl]-1-[(1-methyl-1H-imidazol-4-yl)sulfonyl]-4-(1,3-oxazol-2-yl)pyrrolidin-3-amine] | ≤ 10000 nM |
| CCOCCCNC[C@@H]1CN(S(=O)(=O)c2cn(C)cn2)C[C@H]1c1ccc(F)cc1 (relative stereo) [Example 592, 3-ethoxy-N-({trans-4-(4-fluorophenyl)-1-[(1-methyl-1H-imidazol-4-yl)sulfonyl]pyrrolidin-3-yl}methyl)propan-1-amine] | ≤ 10000 nM |
| CCc1ccc(S(=O)(=O)N2CC(Nc3ccc(F)c(F)c3)C(c3ccccc3)C2)s1 (stereo not drawn) [Example 492, N-(3,4-difluorophenyl)-1-[(5-ethylthiophen-2-yl)sulfonyl]-4-phenylpyrrolidin-3-amine] | ≥ 10000 nM |
| Cn1cnc(S(=O)(=O)N2C[C@@H](CNc3ccc(Cl)c(OC(F)(F)F)c3)[C@H](c3ccc(F)cc3)C2)c1 (relative stereo) [Example 377, 4-chloro-N-({trans-4-(4-fluorophenyl)-1-[(1-methyl-1H-imidazol-4-yl)sulfonyl]pyrrolidin-3-yl}methyl)-3-(trifluoromethoxy)aniline] | ≤ 1000 nM |
| Cn1cnc(S(=O)(=O)N2C[C@H](NC(=O)C3CCC(C(F)(F)F)CC3)[C@@H](c3ccc(F)cc3)C2)c1 (stereo partly drawn) [Example 696, N-{(3R,4S)-4-(4-fluorophenyl)-1-[(1-methyl-1H-imidazol-4-yl)sulfonyl]pyrrolidin-3-yl}-4-(trifluoromethyl)cyclohexanecarboxamide] | ≤ 10000 nM |
| O=c1[nH]c2ccc(S(=O)(=O)N3CC(Nc4ccc(F)c(F)c4)C(c4ccccc4)C3)cc2[nH]c1=O (stereo not drawn) [Example 501, 6-({3-[(3,4-difluorophenyl)amino]-4-phenylpyrrolidin-1-yl}sulfonyl)-1,4-dihydroquinoxaline-2,3-dione] | ≤ 10000 nM |
| Cn1cnc(S(=O)(=O)N2C[C@@H](Nc3ccc(C#N)cc3F)[C@H](c3ccccc3)C2)c1 (relative stereo) [Example 53, 3-fluoro-4-({trans-1-[(1-methyl-1H-imidazol-4-yl)sulfonyl]-4-phenylpyrrolidin-3-yl}amino)benzonitrile] | ≤ 10000 nM |
| O=c1[nH]c2cc(S(=O)(=O)N3CC(Nc4ccc(F)c(F)c4)C(c4ccccc4)C3)ccc2o1 (stereo not drawn) [Example 514, 5-({3-[(3,4-difluorophenyl)amino]-4-phenylpyrrolidin-1-yl}sulfonyl)-1,3-benzoxazol-2(3H)-one] | ≤ 10000 nM |

Same assay, conditions: radioligand binding, recombinant CHO cell membranes expressing human GlyT1c

| SMILES | Ki |
| --- | --- |
| Cn1cnc(S(=O)(=O)N2C[C@@H](Nc3ccc(Cl)c(C(F)(F)F)c3)[C@H](C3CCOC3)C2)c1 (relative stereo) [Example 833, trans-N-[4-chloro-3-(trifluoromethyl)phenyl]-1-[(1-methyl-1H-imidazol-4-yl)sulfonyl]-4-(tetrahydrofuran-3-yl)pyrrolidin-3-amine] | ≤ 10000 nM |
| Cn1cnc(S(=O)(=O)N2C[C@@H](Nc3cccc(Cl)c3)[C@H](C3CCOC3)C2)c1 (relative stereo) [Example 829, trans-N-(3-chlorophenyl)-1-[(1-methyl-1H-imidazol-4-yl)sulfonyl]-4-(tetrahydrofuran-3-yl)pyrrolidin-3-amine] | ≤ 10000 nM |
| Cc1cc(N[C@@H]2CN(S(=O)(=O)c3cn(C)cn3)C[C@H]2C2CCCCO2)ccc1F (relative stereo) [Example 847, Trans-N-(4-fluoro-3-methylphenyl)-1-[(1-methyl-1H-imidazol-4-yl)sulfonyl]-4-(tetrahydro-2H-pyran-2-yl)pyrrolidin-3-amine] | ≤ 100 nM |
| Cc1cc(N[C@@H]2CN(S(=O)(=O)c3cn(C)cn3)C[C@H]2C2CCCO2)ccc1F (relative stereo) [Example 845, Trans-N-(4-fluoro-3-methylphenyl)-1-[(1-methyl-1H-imidazol-4-yl)sulfonyl]-4-(tetrahydrofuran-2-yl)pyrrolidin-3-amine] | ≤ 1000 nM |
